Source: patent publication US12037345B2, “Heterobicyclic compounds for inhibiting the activity of SHP2” (TAIHO PHARMACEUTICAL CO., LTD., priority 2018, dated 2024)

Legend:
SHP2 = SHP2 (Homo sapiens (Human), UniProt Q06124); assay: SHP2 Biochemical Assay (DiFMUP conversion, pIRS1-activated); conditions: Table 19; head prints unit as "-M"
Procedure, shortened: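 Human SHP2 (10 pM) pre-incubated 30 min with compound and […] pIRS1 activating peptide, then 50 μM DiFMUP added; buffer 25 mM Bis-Tris propane pH 7.0, 150 mM NaCl, 5% DMSO. Fluorescence rate (ex 360/em 450 nm) over 30 min; IC50 by four-parameter fit, averaged across experiments.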

[1] = test system: pERK (phospho-p44/42 ERK) in HCC827 cells; assay: Cellular pERK Inhibition Assay, Method A (In-Cell Western); assay type: cell-based; conditions: Homo sapiens, Table 19, head prints unit as "-M", read-out: pERK (IC50) Method A
Procedure, shortened: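 HCC827 cells in RPMI/10% FBS were treated with compounds in serum-free medium (0.2% DMSO final) at 37 °C for the indicated time, in quadruplicate. Fixed cells were immunostained for phospho-p44/42 ERK and read by infrared imaging. Blank-subtracted signal was expressed as % of DMSO control; IC50 from four-parameter logistic fit, averaged across experiments.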

SHP2, sequence (Q06124 whole entry): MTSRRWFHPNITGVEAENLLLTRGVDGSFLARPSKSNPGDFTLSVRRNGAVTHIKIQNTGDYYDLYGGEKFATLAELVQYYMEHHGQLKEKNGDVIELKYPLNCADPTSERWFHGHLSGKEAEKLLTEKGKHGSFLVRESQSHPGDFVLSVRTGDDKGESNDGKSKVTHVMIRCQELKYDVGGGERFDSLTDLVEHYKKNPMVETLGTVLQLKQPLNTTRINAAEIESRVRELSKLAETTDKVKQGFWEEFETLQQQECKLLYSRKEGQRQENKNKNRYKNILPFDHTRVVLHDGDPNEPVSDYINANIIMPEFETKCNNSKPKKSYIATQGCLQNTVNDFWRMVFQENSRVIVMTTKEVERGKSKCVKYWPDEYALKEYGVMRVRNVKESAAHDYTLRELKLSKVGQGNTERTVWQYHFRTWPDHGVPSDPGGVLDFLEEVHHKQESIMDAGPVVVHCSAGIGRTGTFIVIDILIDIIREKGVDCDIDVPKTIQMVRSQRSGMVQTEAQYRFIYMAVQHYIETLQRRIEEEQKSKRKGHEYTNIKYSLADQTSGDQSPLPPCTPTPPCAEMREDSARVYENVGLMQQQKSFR

For `Cn1cc2c(Cl)c(-c3c[nH]c4nc(N5C6COCC5CC(N)C6)n(C)c(=O)c34)ccc2n1` (stereo not shown) [Example 22, 2-(7-amino-3-oxa-9-azabicyclo[3.3.1]nonan-9-yl)-5-(4-chloro-2-methyl-2H-indazol-5-yl)-3-methyl-3,7-dihydro-4H-pyrrolo[2,3-d]pyrimidin-4-one], the IC50 (SHP2) was 14 nM and the IC50 [1] was 2200 nM.
For `Cn1cc2c(Cl)c(-c3c[nH]c4nc(N5C[C@H]6C[C@@H]5CN6)n(C)c(=O)c34)ccc2n1` [Example 23, 2-((1R,4R)-2,5-diazabicyclo[2.2.1]heptan-2-yl)-5-(4-chloro-2-methyl-2H-indazol-5-yl)-3-methyl-3,7-dihydro-4H-pyrrolo[2,3-d]pyrimidin-4-one], the IC50 (SHP2) was 120 nM and the IC50 [1] was 4100 nM.
In the case of `Cn1cc2c(Cl)c(-c3c[nH]c4nc(N5C[C@H]6CC[C@@H](C5)[C@@H]6N)n(C)c(=O)c34)ccc2n1` [Example 24, 2-(exo-8-amino-3-azabicyclo[3.2.1]octan-3-yl)-5-(4-chloro-2-methyl-2H-indazol-5-yl)-3-methyl-3,7-dihydro-4H-pyrrolo[2,3-d]pyrimidin-4-one], the IC50 (SHP2) is reported as 18 nM and the IC50 [1] is reported as 140 nM.
`Cn1cc2c(Cl)c(-c3c[nH]c4nc(N5C[C@H]6CC[C@@H](C5)[C@H]6N)n(C)c(=O)c34)ccc2n1` [Example 25, 2-(endo-8-amino-3-azabicyclo[3.2.1]octan-3-yl)-5-(4-chloro-2-methyl-2H-indazol-5-yl)-3-methyl-3,7-dihydro-4H-pyrrolo[2,3-d]pyrimidin-4-one] showed an IC50 (SHP2) of 35 nM and an IC50 [1] of 430 nM.
With `Cn1cc2c(Cl)c(-c3c[nH]c4nc(N5C6CCCC5CNC6)n(C)c(=O)c34)ccc2n1` [Example 27, 2-(3,9-diazabicyclo[3.3.1]nonan-9-yl)-5-(4-chloro-2-methyl-2H-indazol-5-yl)-3-methyl-3,7-dihydro-4H-pyrrolo[2,3-d]pyrimidin-4-one] the IC50 (SHP2) was 7 nM and the IC50 [1] was 46 nM.
In the case of `Cn1cc2c(Cl)c(-c3c[nH]c4nc(N5CC6CCC(C5)N6)n(C)c(=O)c34)ccc2n1` [Example 28, 2-(3,8-diazabicyclo[3.2.1]octan-3-yl)-5-(4-chloro-2-methyl-2H-indazol-5-yl)-3-methyl-3,7-dihydro-4H-pyrrolo[2,3-d]pyrimidin-4-one], the IC50 (SHP2) is reported as 19 nM and the IC50 [1] is reported as 680 nM.
`Cn1cc2c(Cl)c(-c3c[nH]c4nc(N5C6CNCC5C6)n(C)c(=O)c34)ccc2n1` [Example 29, 2-(3,6-diazabicyclo[3.1.1]heptan-6-yl)-5-(4-chloro-2-methyl-2H-indazol-5-yl)-3-methyl-3,7-dihydro-4H-pyrrolo[2,3-d]pyrimidin-4-one] gave an IC50 (SHP2) of 220 nM and an IC50 [1] of 2400 nM.
`Cn1cc2c(Cl)c(-c3c[nH]c4nc(N5CC6CCCC(C5)N6)n(C)c(=O)c34)ccc2n1` [Example 30, 2-(3,9-diazabicyclo[3.3.1]nonan-3-yl)-5-(4-chloro-2-methyl-2H-indazol-5-yl)-3-methyl-3,7-dihydro-4H-pyrrolo[2,3-d]pyrimidin-4-one] gave an IC50 (SHP2) of 9.7 nM and an IC50 [1] of 220 nM.
`Cn1cc2c(Cl)c(-c3c[nH]c4nc(N5CC6CC(C5)N6)n(C)c(=O)c34)ccc2n1` [Example 31, 2-(3,6-diazabicyclo[3.1.1]heptan-3-yl)-5-(4-chloro-2-methyl-2H-indazol-5-yl)-3-methyl-3,7-dihydro-4H-pyrrolo[2,3-d]pyrimidin-4-one] gave an IC50 (SHP2) of 40 nM and an IC50 [1] of 1000 nM.
With `Cn1cc2c(Cl)c(-c3c[nH]c4nc(N5CC6CCC5CN6)n(C)c(=O)c34)ccc2n1` (stereo not shown) [Example 32, 2-(2,5-diazabicyclo[2.2.2]octan-2-yl)-5-(4-chloro-2-methyl-2H-indazol-5-yl)-3-methyl-3,7-dihydro-4H-pyrrolo[2,3-d]pyrimidin-4-one] the IC50 (SHP2) was 17 nM and the IC50 [1] was 920 nM.
`Cn1cc2c(Cl)c(-c3c[nH]c4nc(N5C[C@H]6C[C@@H](C5)[C@@H]6N)n(C)c(=O)c34)ccc2n1` [Example 33, 2-(exo-6-amino-3-azabicyclo[3.1.1]heptan-3-yl)-5-(4-chloro-2-methyl-2H-indazol-5-yl)-3-methyl-3,7-dihydro-4H-pyrrolo[2,3-d]pyrimidin-4-one] showed an IC50 (SHP2) of 47 nM and an IC50 [1] of 480 nM.
In the case of `Cn1cc2c(Cl)c(-c3c[nH]c4nc(N5C[C@H]6C[C@@H](C5)[C@H]6N)n(C)c(=O)c34)ccc2n1` [Example 34, 2-(endo-6-amino-3-azabicyclo[3.1.1]heptan-3-yl)-5-(4-chloro-2-methyl-2H-indazol-5-yl)-3-methyl-3,7-dihydro-4H-pyrrolo[2,3-d]pyrimidin-4-one], the IC50 (SHP2) is reported as 160 nM and the IC50 [1] is reported as 2300 nM.
With `Cn1cc2c(Cl)c(-c3c[nH]c4nc(N5CC6CC5CC6N)n(C)c(=O)c34)ccc2n1` (stereo not shown) [Example 35, 2-(5-amino-2-azabicyclo[2.2.1]heptan-2-yl)-5-(4-chloro-2-methyl-2H-indazol-5-yl)-3-methyl-3,7-dihydro-4H-pyrrolo[2,3-d]pyrimidin-4-one] the IC50 (SHP2) was 38 nM and the IC50 [1] was 1000 nM.
`Cn1cc2c(Cl)c(-c3c[nH]c4nc(N5[C@@H]6CCC[C@H]5C[C@H](N)C6)n(C)c(=O)c34)ccc2n1` [Example 36, 2-(exo-3-amino-9-azabicyclo[3.3.1]nonan-9-yl)-5-(4-chloro-2-methyl-2H-indazol-5-yl)-3-methyl-3,7-dihydro-4H-pyrrolo[2,3-d]pyrimidin-4-one] showed an IC50 (SHP2) of 5.5 nM and an IC50 [1] of 350 nM.
With `Cn1cc2c(Cl)c(-c3c[nH]c4nc(N5[C@@H]6CCC[C@H]5C[C@@H](N)C6)n(C)c(=O)c34)ccc2n1` [Example 37, 2-(endo-3-amino-9-azabicyclo[3.3.1]nonan-9-yl)-5-(4-chloro-2-methyl-2H-indazol-5-yl)-3-methyl-3,7-dihydro-4H-pyrrolo[2,3-d]pyrimidin-4-one] the IC50 (SHP2) was 12 nM and the IC50 [1] was 970 nM.
`Cn1cc2c(Cl)c(-c3c[nH]c4nc(N5CCC6(CCCN6)CC5)n(C)c(=O)c34)ccc2n1` [Example 38, 5-(4-chloro-2-methyl-2H-indazol-5-yl)-3-methyl-2-(1,8-diazaspiro[4.5]decan-8-yl)-3,7-dihydro-4H-pyrrolo[2,3-d]pyrimidin-4-one] showed an IC50 (SHP2) of 74 nM and an IC50 [1] of 1400 nM.
For `Cn1cc2c(Cl)c(-c3c[nH]c4nc(N5CCNCC5)n(C)c(=O)c34)ccc2n1` [Example 39, 5-(4-chloro-2-methyl-2H-indazol-5-yl)-3-methyl-2-(piperazin-1-yl)-3,7-dihydro-4H-pyrrolo[2,3-d]pyrimidin-4-one], the IC50 (SHP2) was 66 nM and the IC50 [1] was 700 nM.
For `Cn1cc2c(Cl)c(-c3c[nH]c4nc(N5CCC6NCC6C5)n(C)c(=O)c34)ccc2n1` (stereo not shown) [Example 40, 2-(3,7-diazabicyclo[4.2.0]octan-3-yl)-5-(4-chloro-2-methyl-2H-indazol-5-yl)-3-methyl-3,7-dihydro-4H-pyrrolo[2,3-d]pyrimidin-4-one], the IC50 (SHP2) was 96 nM and the IC50 [1] was 4500 nM.
`Cn1cc2c(Cl)c(-c3c[nH]c4nc(N5CCC6(CCCCN6)CC5)n(C)c(=O)c34)ccc2n1` [Example 41, 5-(4-chloro-2-methyl-2H-indazol-5-yl)-3-methyl-2-(1,9-diazaspiro[5.5]undecan-9-yl)-3,7-dihydro-4H-pyrrolo[2,3-d]pyrimidin-4-one] gave an IC50 (SHP2) of 57 nM and an IC50 [1] of 1800 nM.
`Cn1cc2c(Cl)c(-c3c[nH]c4nc(N5CC[C@H](N)C5)n(C)c(=O)c34)ccc2n1` [Example 43, (S)-2-(3-aminopyrrolidin-1-yl)-5-(4-chloro-2-methyl-2H-indazol-5-yl)-3-methyl-3,7-dihydro-4H-pyrrolo[2,3-d]pyrimidin-4-one] gave an IC50 (SHP2) of 35 nM and an IC50 [1] of 720 nM.
`Cn1cc2c(Cl)c(-c3c[nH]c4nc(N5CC[C@@H](N)C5)n(C)c(=O)c34)ccc2n1` [Example 44, (R)-2-(3-aminopyrrolidin-1-yl)-5-(4-chloro-2-methyl-2H-indazol-5-yl)-3-methyl-3,7-dihydro-4H-pyrrolo[2,3-d]pyrimidin-4-one] was tested, and the IC50 (SHP2) was 55 nM and the IC50 [1] was 1500 nM.
With `C[C@H]1CN(c2nc3[nH]cc(-c4ccc5nn(C)cc5c4Cl)c3c(=O)n2C)CCN1` [Example 45, (S)-5-(4-chloro-2-methyl-2H-indazol-5-yl)-3-methyl-2-(3-methylpiperazin-1-yl)-3,7-dihydro-4H-pyrrolo[2,3-d]pyrimidin-4-one] the IC50 (SHP2) was 110 nM and the IC50 [1] was 1500 nM.
For `Cn1cc2c(Cl)c(-c3c[nH]c4nc(N5[C@@H]6CC[C@H]5[C@@H](N)C6)n(C)c(=O)c34)ccc2n1` [Example 46, 2-((1S,2S,4R)-2-amino-7-azabicyclo[2.2.1]heptan-7-yl)-5-(4-chloro-2-methyl-2H-indazol-5-yl)-3-methyl-3,7-dihydro-4H-pyrrolo[2,3-d]pyrimidin-4-one], the IC50 (SHP2) was 33 nM and the IC50 [1] was 420 nM.
`C[C@@H]1CNCCN1c1nc2[nH]cc(-c3ccc4nn(C)cc4c3Cl)c2c(=O)n1C` [Example 47, (R)-5-(4-chloro-2-methyl-2H-indazol-5-yl)-3-methyl-2-(2-methylpiperazin-1-yl)-3,7-dihydro-4H-pyrrolo[2,3-d]pyrimidin-4-one] was tested, and the IC50 (SHP2) was 32 nM and the IC50 [1] was 380 nM.
For `C[C@H]1CNCCN1c1nc2[nH]cc(-c3ccc4nn(C)cc4c3Cl)c2c(=O)n1C` [Example 48, (S)-5-(4-chloro-2-methyl-2H-indazol-5-yl)-3-methyl-2-(2-methylpiperazin-1-yl)-3,7-dihydro-4H-pyrrolo[2,3-d]pyrimidin-4-one], the IC50 (SHP2) was 85 nM and the IC50 [1] was 1000 nM.
Compound `Cn1cc2c(Cl)c(-c3c[nH]c4nc(N5[C@H]6CC[C@@H]5[C@H](N)C6)n(C)c(=O)c34)ccc2n1` [Example 49, 2-((1R,2R,4S)-2-amino-7-azabicyclo[2.2.1]heptan-7-yl)-5-(4-chloro-2-methyl-2H-indazol-5-yl)-3-methyl-3,7-dihydro-4H-pyrrolo[2,3-d]pyrimidin-4-one] has an IC50 (SHP2) of 4.5 nM and an IC50 [1] of 21 nM.
